In the NIST ThermoML archive (doi:10.1021/je4009238):

Key:
[1] = refractive index (Na D-line) (dimensionless); xn = mol fraction of the nth substance listed; details: 101 kPa, Liquid
[2] = xn = mol fraction of the nth substance listed; details: 101 kPa, Liquid

CCn1cc[n+](C)c1.[Cl-] [1-ethyl-3-methylimidazolium chloride] + CN(C)C=O
Details	mass density, [2] [kg/m3]	refractive index, [1]	viscosity, [2] [mPa·s]
288.15 K, x1 = 0.0102	958.86	1.43565	1.023
288.15 K, x1 = 0.0203	963.47	1.43836	1.156
288.15 K, x1 = 0.031	968.07	1.44091	1.188
288.15 K, x1 = 0.0417	972.24	1.44354	1.327
288.15 K, x1 = 0.0524	976.38	1.44588	1.399
288.15 K, x1 = 0.0635	980.82	1.44822	1.535
288.15 K, x1 = 0.0752	984.98	1.45067	1.765
288.15 K, x1 = 0.0867	989.33	1.45308	1.867
288.15 K, x1 = 0.0988	993.32	1.45542	2.123
288.15 K, x1 = 0.1107	997.33	1.45784	2.25
288.15 K, x1 = 0.1232	1001.39	1.46021	2.429
288.15 K, x1 = 0.1361	1005.6	1.46253	2.766
288.15 K, x1 = 0.1489	1009.6	1.46477	3.002
288.15 K, x1 = 0.1626	1013.74	1.46721	3.293
288.15 K, x1 = 0.1759	1017.7	1.46942	3.645
298.15 K, x1 = 0.0102	949.52	1.43106	0.8935
298.15 K, x1 = 0.0203	954.18	1.43346	1.007
298.15 K, x1 = 0.031	958.86	1.4364	1.03
298.15 K, x1 = 0.0417	963.18	1.43872	1.147
298.15 K, x1 = 0.0524	967.27	1.44144	1.198
298.15 K, x1 = 0.0635	971.86	1.44361	1.312
298.15 K, x1 = 0.0752	976.05	1.44626	1.501
298.15 K, x1 = 0.0867	980.59	1.44855	1.577
298.15 K, x1 = 0.0988	984.64	1.4511	1.784
298.15 K, x1 = 0.1107	988.67	1.45354	1.879
298.15 K, x1 = 0.1232	992.88	1.45597	2.014
298.15 K, x1 = 0.1361	997.07	1.45827	2.278
298.15 K, x1 = 0.1489	1001.24	1.46065	2.453
298.15 K, x1 = 0.1626	1005.4	1.46302	2.672
298.15 K, x1 = 0.1759	1009.49	1.46536	2.922
308.15 K, x1 = 0.0102	940.08	1.42654	0.7902
308.15 K, x1 = 0.0203	944.84	1.42888	0.8895
308.15 K, x1 = 0.031	949.62	1.43189	0.9058
308.15 K, x1 = 0.0417	954.02	1.43416	1.004
308.15 K, x1 = 0.0524	958.21	1.43691	1.045
308.15 K, x1 = 0.0635	962.87	1.43896	1.139
308.15 K, x1 = 0.0752	967.15	1.4419	1.297
308.15 K, x1 = 0.0867	971.78	1.44372	1.355
308.15 K, x1 = 0.0988	975.93	1.44678	1.527
308.15 K, x1 = 0.1107	980.02	1.44907	1.625
308.15 K, x1 = 0.1232	984.31	1.45167	1.705
308.15 K, x1 = 0.1361	988.59	1.45406	1.916
308.15 K, x1 = 0.1489	992.84	1.45621	2.051
308.15 K, x1 = 0.1626	997.09	1.45888	2.251
308.15 K, x1 = 0.1759	1001.24	1.46102	2.406
318.15 K, x1 = 0.0102	930.6	1.42218	0.7059
318.15 K, x1 = 0.0203	935.4	1.4245	0.794
318.15 K, x1 = 0.031	940.37	1.4275	0.8045
318.15 K, x1 = 0.0417	944.85	1.42977	0.8901
318.15 K, x1 = 0.0524	949.12	1.43252	0.923
318.15 K, x1 = 0.0635	953.87	1.43477	1.002
318.15 K, x1 = 0.0752	958.24	1.43765	1.136
318.15 K, x1 = 0.0867	962.96	1.43964	1.181
318.15 K, x1 = 0.0988	967.2	1.44253	1.327
318.15 K, x1 = 0.1107	971.44	1.445	1.404
318.15 K, x1 = 0.1232	975.73	1.44746	1.468
318.15 K, x1 = 0.1361	980.13	1.44986	1.64
318.15 K, x1 = 0.1489	984.44	1.45192	1.748
318.15 K, x1 = 0.1626	988.83	1.45477	1.905
318.15 K, x1 = 0.1759	993.01	1.45679	2.02
